In article PMC5703498, “Plant-type phytoene desaturase: Functional evaluation of structural implications” (PLoS ONE, 2017):

Key:
[1] = biological target: T1, Phytoene desaturase (OsPDS-His6) (Oryza sativa, UniProt A2XDA1); test: liposome-based desaturase assay with purified enzyme, competitive inhibition fit against DPQ, HPLC; format: biochemical
T1 construct: gene PDS1

[2] = biological target: T2, Phytoene desaturase (OsPDS-His6) (Oryza sativa, UniProt A2XDA1, R300S); test: liposome-based desaturase assay with purified mutant, DPQ x NFZ matrix, competitive inhibition fit; format: biochemical
T2 construct: gene PDS1
T2 sequence (A2XDA1 88-578 R300S): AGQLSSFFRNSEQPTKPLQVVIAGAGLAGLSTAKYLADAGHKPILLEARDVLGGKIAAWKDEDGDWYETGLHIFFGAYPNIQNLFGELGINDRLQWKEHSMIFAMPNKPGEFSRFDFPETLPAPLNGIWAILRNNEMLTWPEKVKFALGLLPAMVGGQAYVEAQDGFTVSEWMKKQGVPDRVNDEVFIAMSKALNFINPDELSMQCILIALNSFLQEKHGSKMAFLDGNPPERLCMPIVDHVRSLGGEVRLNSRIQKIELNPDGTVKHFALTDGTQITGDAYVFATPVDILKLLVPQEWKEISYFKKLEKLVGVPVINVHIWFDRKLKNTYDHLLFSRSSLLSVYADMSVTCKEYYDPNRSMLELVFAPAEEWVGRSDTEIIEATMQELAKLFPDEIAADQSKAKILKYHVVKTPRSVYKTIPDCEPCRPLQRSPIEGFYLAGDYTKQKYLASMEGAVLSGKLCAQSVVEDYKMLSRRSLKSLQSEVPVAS

T1 sequence (A2XDA1 88-578): as the sequence (A2XDA1 88-578 R300S) above, with S213R counted along it

For CNc1cnn(-c2cccc(C(F)(F)F)c2)c(=O)c1Cl [NFZ, norflurazon], which Ki [1] is on record?
Its Ki is 230 ± 30 µM.

What about the Ki [2] of the same molecule?
Its Ki is 1110 ± 360 µM.
